“Also recorded” adds a separate entry of the source.
What was measured:
PGRMC1 K132V = biological target: T1, PGRMC1 K132V (Homo sapiens, UniProt O00264, K132V); test: ITC binding of GL to PGRMC1 mutant K132V
T1 construct: human PGRMC1 intracellular domain residues 43-195; GST (N, cleaved yes); made in house; host or cells: E. coli BL21 (DE3)
Excerpt: (§1) Bacterial expression vectors pGEX-PGRMC1 (human PGRMC1 intracellular domain residues 43-195) and mammalian FLAG-tagged expression vector pCMV-FLAG-PGRMC1 (full-length) were constructed as described previously. Expression vectors for PGRMC1 point mutants were generated by site-directed mutagenesis with PCR. For construction of HMGB1 expression vector, human HMGB1 full-length cDNA was cloned from cDNA library of HCT116 cells using the primers (Forward: 5′-[…]-3′, Reverse: 5′-[…]-[…]-3′), digested with Bam HI and Sal I, and then ligated into pGEX6P1.
(§2) ITC experiments were performed at 298 K with ITC-Buffer (50 mM phosphate [pH 7.0]) using a MicroCal iTC200 (Malvern Panalytical, Malvern, UK). GL derivatives were dissolved in […] and titrated into 100 μM apo-PGRMC1, heme-bound-PGRMC1, or HMGB1 protein. Titration was performed by injecting 2 µL of the syringe solution at intervals of 120 s. Binding isotherms were analyzed using SEDPHAT [35]. The binding of AG205 to apo- or heme-PGRMC1 (100 μM) was analyzed using a concentration of 3 mM containing 1% DMSO. The binding affinities of GL derivatives for HMGB1 (80 µM) were analyzed using a concentration of 3 mM.

PGRMC1 G108W = biological target: T2, PGRMC1 G108W (Homo sapiens, UniProt O00264, G108W); test: ITC binding of GL to PGRMC1 mutant G108W
T2 construct: human PGRMC1 intracellular domain residues 43-195; GST (N, cleaved yes); made in house; host or cells: E. coli BL21 (DE3)
T2 sequence (O00264 43-195 G108W): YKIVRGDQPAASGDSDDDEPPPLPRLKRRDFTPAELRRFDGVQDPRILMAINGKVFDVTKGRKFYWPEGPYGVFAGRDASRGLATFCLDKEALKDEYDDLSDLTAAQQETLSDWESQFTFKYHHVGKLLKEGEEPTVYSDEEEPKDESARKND
Excerpt: as §1, §2

PGRMC1 F128W = biological target: T3, PGRMC1 F128W (Homo sapiens, UniProt O00264, F128W); test: ITC binding of GL to PGRMC1 mutant F128W
T3 construct: human PGRMC1 intracellular domain residues 43-195; GST (N, cleaved yes); made in house; host or cells: E. coli BL21 (DE3)
T3 sequence (O00264 43-195 F128W): as the sequence (O00264 43-195 G108W) above, with W66G, F86W counted along it
Excerpt: as §1, §2

PGRMC1 A147W = biological target: T4, PGRMC1 A147W (Homo sapiens, UniProt O00264, A147W); test: ITC binding of GL to PGRMC1 mutant A147W
T4 construct: human PGRMC1 intracellular domain residues 43-195; GST (N, cleaved yes); made in house; host or cells: E. coli BL21 (DE3)
T4 sequence (O00264 43-195 A147W): as the sequence (O00264 43-195 G108W) above, with W66G, A105W counted along it
Excerpt: as §1, §2

PGRMC1 T146W = biological target: T5, PGRMC1 T146W (Homo sapiens, UniProt O00264, T146W); test: ITC binding of GL to PGRMC1 mutant T146W
T5 construct: human PGRMC1 intracellular domain residues 43-195; GST (N, cleaved yes); made in house; host or cells: E. coli BL21 (DE3)
T5 sequence (O00264 43-195 T146W): as the sequence (O00264 43-195 G108W) above, with W66G, T104W counted along it
Excerpt: as §1, §2

PGRMC1 G111W = biological target: T6, PGRMC1 G111W (Homo sapiens, UniProt O00264, G111W); test: ITC binding of GL to PGRMC1 mutant G111W
T6 construct: human PGRMC1 intracellular domain residues 43-195; GST (N, cleaved yes); made in house; host or cells: E. coli BL21 (DE3)
T6 sequence (O00264 43-195 G111W): as the sequence (O00264 43-195 G108W) above, with W66G, G69W counted along it
Excerpt: as §1, §2

PGRMC1 Q149F = biological target: T7, PGRMC1 Q149F (Homo sapiens, UniProt O00264, Q149F); test: ITC binding of GL to PGRMC1 mutant Q149F
T7 construct: human PGRMC1 intracellular domain residues 43-195; GST (N, cleaved yes); made in house; host or cells: E. coli BL21 (DE3)
T7 sequence (O00264 43-195 Q149F): as the sequence (O00264 43-195 G108W) above, with W66G, Q107F counted along it
Excerpt: as §1, §2

apo-PGRMC1 = biological target: T8, apo-PGRMC1 (Homo sapiens, UniProt O00264); test: ITC binding to apo-PGRMC1; conditions: apo-monomer form
T8 construct: human PGRMC1 intracellular domain residues 43-195; GST (N, cleaved yes); made in house; host or cells: E. coli BL21 (DE3)
T8 sequence (O00264 43-195): as the sequence (O00264 43-195 G108W) above, with W66G counted along it
Excerpt: as §1
Expression vectors (pGEX-PGRMC1 (residues 43-195) or pGEX-HMGB1) were transformed into BL21 (DE3) competent E. coli cells, and the cells incubated in LB medium with ampicillin at 37 °C until the OD600 reached 0.8. Protein expression was induced by adding 1 mM isopropyl-β-thiogalactopyranoside (IPTG) and incubating at 37 °C for 4 h. […]
ITC experiments were performed at 298 K with ITC-Buffer (50 mM phosphate [pH 7.0]) using a MicroCal iTC200 (Malvern Panalytical, Malvern, UK). […] Binding isotherms were analyzed using SEDPHAT [35]. The binding of AG205 to apo- or heme-PGRMC1 (100 μM) was analyzed using a concentration of 3 mM containing 1% DMSO. […]

T1 sequence (O00264 43-195 K132V): as the sequence (O00264 43-195 G108W) above, with W66G, K90V counted along it

Kd (PGRMC1 K132V): 84.6 µM
TΔS (PGRMC1 K132V): 4.55 K･kcal/mol
ΔG (PGRMC1 K132V): -5.56 kcal/mol
ΔH (PGRMC1 K132V): -1.01 kcal/mol
Kd (PGRMC1 G108W): 185 µM
TΔS (PGRMC1 G108W): 1.58 K･kcal/mol
ΔG (PGRMC1 G108W): -5.09 kcal/mol
ΔH (PGRMC1 G108W): -3.51 kcal/mol
Kd (PGRMC1 F128W): 137 µM
TΔS (PGRMC1 F128W): 0.38 K･kcal/mol
ΔG (PGRMC1 F128W): -5.27 kcal/mol
ΔH (PGRMC1 F128W): -4.90 kcal/mol
Kd (PGRMC1 A147W): 158 µM
TΔS (PGRMC1 A147W): 2.10 K･kcal/mol
ΔG (PGRMC1 A147W): -5.19 kcal/mol
ΔH (PGRMC1 A147W): -3.09 kcal/mol
Kd (PGRMC1 T146W): 97.9 µM
TΔS (PGRMC1 T146W): 2.64 K･kcal/mol
ΔH (PGRMC1 T146W): -2.17 kcal/mol
Kd (PGRMC1 G111W): 108 µM
TΔS (PGRMC1 G111W): 4.39 K･kcal/mol
ΔH (PGRMC1 G111W): -1.86 kcal/mol
Kd (PGRMC1 Q149F): 403 µM
TΔS (PGRMC1 Q149F): −10.62 K･kcal/mol
ΔH (PGRMC1 Q149F): -14.37 kcal/mol
Compound: CC1(C)[C@@H](O[C@H]2O[C@H](C(=O)O)[C@@H](O)[C@H](O)[C@H]2O[C@@H]2O[C@H](C(=O)O)[C@@H](O)[C@H](O)[C@H]2O)CC[C@]2(C)[C@H]3C(=O)C=C4[C@@H]5C[C@@](C)(C(=O)O)CC[C@]5(C)CC[C@@]4(C)[C@]3(C)CC[C@@H]12 [Glycyrrhizin (GL), Glycyrrhizin]
Binding to apo-PGRMC1 (apo-PGRMC1): No Binding; also recorded: not to the apo-monomer form

— article PMC8269059, “Glycyrrhizin Derivatives Suppress Cancer Chemoresistance by Inhibiting Progesterone Receptor Membrane Component 1” (Cancers, 2021)
